We go through eight compounds from patent publication US5747545A, “Method of preventing NMDA receptor complex-mediated Neuronal damage” (priority 1995, dated 1998).

Series [1] has as its system NMDA receptor (rat cortical neurons in culture). Kind of series: Digital fura-2 imaging of NMDA-evoked intracellular [Ca2+] in cultured cortical neurons. It counts as cell-based, rat (Sprague-Dawley). The settings on record: for Effect on NMDA-evoked [Ca2+]i response (SNOC experiment): after 2 mM DTT, 3 min exposure to 100 μM SNOC, NMDA 50 μM, FIG. 5A, P<0.01.
The test system is the same in series [2]. The description is as above. In kind it is cell-based, rat (Sprague-Dawley). The following applies: 50 μM NMDA; Examples 1-2; NTG 100 μM in Example 2. The method, then: The concentration of intracellular free Ca^2+ ([Ca^2+ ]i) is measured in neonatal cortical neurons by digital imaging microscopy with the Ca^2+ sensitive fluorescent dye fura 2, as follows. The same cortical neuronal cultures as described above are used. During Ca^2+ measurements, unless otherwise stated the fluid bathing the neurons consists of Hanks' balanced salts: 137.6 mM NaCl, 1 mM NaHCO3, 0.34 mM Na2 HPO4, 0.44 mM KH2 PO4, 5.36 mM KCl, 1.25 mM CaCl2, 0.5 mM MgSO4, 0.5 mM MgCl2, 5 mM Hepes NaOH, 22.2 mM glucose, and sometimes with phenol red indicator (0.001% v/v); pH 7.2. NMDA (in the absence Mg^++), glutamate, and other substances are usually applied to the neurons by pressure ejection after dilution in this bath solution. Neuronal [Ca^2+ ]i is analyzed with fura 2-acetoxy-methyl ester (AM) as described [Grynkiewicz, et al., J. Biol. Chem. 260:3440 (1985); Williams et al., Nature 318:558 (1985); Connor et al., J. Neurosci. 7:1384 (1987); Connor et al., Science 240:649 (1988); Cohan et al., J. Neurosci. 7:3588 (1987); Mattson, et al., ibid, 9:3728 (1989)]. After adding Eagle's minimum essential medium containing 10 μM fura 2-AM to the neurons, the cultures are incubated at 37° C. in a 5% CO2 /95% air humidified chamber and then rinsed. The dye is loaded, trapped, and deesterified within 1 hour, as determined by stable fluorescence ratios and the effect of the Ca^2+ ionophore ionomycin on [Ca^2+ ]i is measured. During Ca^2+ imaging, the cells are incubated in a solution of Hepes-buffered saline with Hanks' balanced salts. The [Ca^2+ ]i is calculated from ratio images that are obtained by measuring the fluorescence at 500 nm that is excited by 350 and 380 nm light with a DAGE MTI 66 SIT or QUANTEX QX-100 Intensified CCD camera mounted on a Zeiss Axiovert 35 microscope. Exposure time for each picture is 500 ms. Analysis is performed with a Quantex (Sunnyvale, Calif.) QX7-210 image-processing system. Since cells are exposed to ultraviolet light only during data collection (generally less than a total of 20 s per cell), bleaching of fura 2 is minimal.
In this experiment, the effect of NTG on intracellular [Ca^++ ] increases induced by NMDA were followed using digital [Ca^++ ] imaging techniques, based on the dye fura-2.
Specifically, the model for NMDA-mediated neurotoxicity involves exposure of cultured rat cortical neurons to NMDA in the presence of glycine (a co-agonist).
Cortical cultures were derived from embryonic (fetal day 15 or 16) Sprague-Dawley rats as described previously (Dichter, 1978; Rosenberg and Aizenman, 1989). […]

The subject of series [3] is cortical neurons (NMDA receptor-mediated neurotoxicity). Kind of series: Neurotoxicity assay: survival of cortical neurons after DTT and NMDA exposure. The settings on record: chemical reduction of redox modulatory site. It counts as cell-based, rat. The method, then:
To test compounds for their ability to prevent neurotoxicity, neuronal cell death may be assayed as follows. […] The candidate compound is tested by addition (e.g., in a series of concentrations ranging from 0.1 nM-10 mM) after DTT treatment but before NMDA treatment. The candidate compound can be added for minutes, hours, or even days prior to its washout period. […] Neuronal cultures are scored for cell survival after this overnight incubation because NMDA toxicity is often delayed by several hours following NMDA exposure.
Using the neurotoxicity assay described above, the compounds sodium nitroprusside and nitroglycerin were tested individually for their ability to increase survival of neonatal cortical neurons.
As shown in FIG. 6A-6D, surviving neurons are expressed as the percentage of viable neurons in the control culture dishes in the same experiment. The concentrations of drugs were as follows: APV (2 mM), NTG (100 μM), SNP (400 μM), DTT (0.5-2 mM), and reduced Hb (500 μM). […] Values are mean ±SEM for experiments run in triplicate on sibling cultures on separate days (total of 32 experiments). Astericks indicate significant difference compared with the value for DTT-NMDA exposure, P<0.05 (ANOVA followed by Scheffe multiple comparison of means.

The test system of series [4] is NMDA receptor (cortical neurons). As to the kind of experiment: Patch-clamp recording of NMDA-evoked current in cortical neurons. The settings on record: for Effect on NMDA-evoked current: 50 μM NMDA + 1 μM glycine, -60 mV, DTT 2 mM, NTG 500 μM, DTNB 500 μM, 2 min exposure, washout, FIG. 4. In kind it is cell-based, rat (Sprague-Dawley).
The conditions of series [5]: adult treated for Parkinson's symptoms for several weeks; reversible after discontinuation; cited from earlier work.
Series [6] relates to cortical neurons (neuronal survival). The following applies: SNOC or purified peroxynitrite incubation; listed as OONO^-. The method, then: S-nitrosocysteine was added as a source of NO.cndot. to cerebrocortical cultures (Lei et al., (1992) Neuron 8:1087-1099; Stamler et al., (1992) Science 258:1898-1902).
Peroxynitrite leads to lipid peroxidation and massive oxidation of sulfhydryls (Radi et al., (1991) J. Biol. Chem. 266:4244-4250; Radi et al., (1991) Arch. Biochem. Biophys. 288:481-487).
Values are expressed as mean+s.e.m. (n=9). Statistical comparisons were performed by an analysis of variance followed by a Scheffe multiple comparison of means (*, P<0.01 compared to control; **, P<0.05 compared to control; .dagger., P<0.01 compared to nitroso compound+SOD/catalase).
Specifically, the data in FIG. 7 were generated using mixed neuronal and glial cortical cultures from neonatal rats, as described previously (Lei, et al., (1992) Neuron 8:1087-1099). In at least three separate experiments, triplicate cultures were incubated overnight in Earle's buffered saline solution (EBSS) containing various concentrations of SNOC, peroxynitrite, SOD, catalase, or glutamate. […] The culture fluid was assayed for […] (LDH) as an indicator of neuronal survival by measuring the absorbance at 450 nm (Koh et al., (1987) J. Neurosci. Meth. 20:83-90). The cultures were also scored for neuronal viability by cell counting, generally with 0.2% trypan blue, after fixation in 2.5% glutaraldehyde, as described above. Neurons from cultures grown on 15 mm diameter cover slips were counted in a masked fashion in ~30 microscopic fields at 200 x.

Entries after “also recorded” stand apart in the source; their conditions may differ.

Regarding `O[C@H](CS)[C@H](O)CS` (racemic) [DTT, dithiothreitol], the “Effect on NMDA-evoked [Ca2+]i response (SNOC experiment)” value in series [1] is “the NMDA-evoked response was increased; also recorded: fully reversed the inhibitory effect of S-nitrosocysteine”. Moreover, the “Effect on NMDA-evoked [Ca2+]i response” value in series [2] is recorded as “reversed the effect of NTG”. Moreover, the “Effect on neurotoxic effect of NMDA” value in series [3] is reported as “increases the neurotoxic effect of NMDA”. In series [4], the “Effect on NMDA-evoked current” value is given as “enhanced the NMDA-evoked current; also recorded: increased NMDA-activated currents”.

On to `O[C@H](CS)[C@H](O)CS` (relative stereo) [dithiothreitol (DTT)], for which the “Effect on NMDA-evoked [Ca2+]i response” value in series [2] is recorded as “further enhanced”.

On to `O=C(O)c1cc(SSc2ccc([N+](=O)[O-])c(C(=O)O)c2)ccc1[N+](=O)[O-]` [DTNB, 5,5dithio-bis-2-nitrobenzoic acid], for which the “Effect on NMDA-evoked [Ca2+]i response” value in series [2] was “decreased the NMDA evoked [Ca^2+ ]i responses”. For the same compound, the “Effect on NMDA-evoked current” value in series [4] is given as “decreased the responses slightly”. Besides, the “Effect on amplitude of NMDA evoked current following alkylation with NEM” value in series [4] (after 1-5 mM NEM) was “neither NTG nor DTNB significantly affected the amplitude of NMDA evoked current”.

In the case of `CCN1C(=O)C=CC1=O` [NEM, N-ethylmalemide], the “Effect of NEM pretreatment on the SNOC effect on NMDA-evoked [Ca2+]i” value in series [1] (NEM pretreatment, FIG. 5B) is listed as “blocks the effect of SNOC”.

Regarding `CN[C@H](CC(=O)O)C(=O)O` [NMDA, N-methyl-D-aspartate], in series [1] (NMDA 50 μM after 2 mM DTT, FIG. 5), the “Maximum NMDA response obtained after exposure to DTT, [Ca2+]i” value is ~ 750 nM [Ca2+]i.

Regarding `NC(CSN=O)C(=O)O` (stereo not shown) [S-nitrosocysteine (SNOC)], in series [1], the “Effect on NMDA-evoked [Ca2+]i response (SNOC experiment)” value is reported as “inhibited”.

`Cl.NC12CC3CC(CC(C3)C1)C2` [amantadine, 1-adamantanamine hydrochloride]: the “Visual loss (case report)” value in series [5] is given as “one case report of visual loss in an adult patient”.

With `O=NOO` [peroxynitrite], the “Killing of cortical neurons” value in series [6] was “kills neurons in a dose-dependent fashion”.
